Test results published in US8168651B2, “Protein kinase modulators” (Cylene Pharmaceuticals, Inc., priority 2008, dated 2012).

Legend:
Experiment in all cases: Standardized radiometric kinase assays, percentage of activity at 0.5 μM;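 further: Read-out is ³³P-labelled substrate protein phosphorylated by each kinase, captured on filters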
[1] = target: each individual kinase of the panel (Homo sapiens, UniProt Q02156)
[2] = target: each individual kinase of the panel (Homo sapiens, UniProt O96013)
[3] = target: each individual kinase of the panel (Homo sapiens, UniProt Q9UPE1)
[4] = target: each individual kinase of the panel (Homo sapiens, UniProt P49840)
each individual kinase of the panel (Homo sapiens, UniProt P49840), sequence (P49840 2-483 limits assumed): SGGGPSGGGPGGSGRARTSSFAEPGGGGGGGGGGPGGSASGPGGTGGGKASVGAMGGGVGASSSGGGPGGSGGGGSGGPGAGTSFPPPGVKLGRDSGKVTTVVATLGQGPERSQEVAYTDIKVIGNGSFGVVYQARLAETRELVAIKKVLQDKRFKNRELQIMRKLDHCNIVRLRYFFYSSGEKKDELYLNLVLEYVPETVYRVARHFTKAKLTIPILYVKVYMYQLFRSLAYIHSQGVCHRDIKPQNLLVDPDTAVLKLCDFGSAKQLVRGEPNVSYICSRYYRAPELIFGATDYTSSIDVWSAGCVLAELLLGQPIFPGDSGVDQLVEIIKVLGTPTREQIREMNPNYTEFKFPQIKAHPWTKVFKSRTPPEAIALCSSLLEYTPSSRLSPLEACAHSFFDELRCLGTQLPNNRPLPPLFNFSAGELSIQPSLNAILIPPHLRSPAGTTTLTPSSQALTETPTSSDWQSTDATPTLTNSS

[5] = target: each individual kinase of the panel (Homo sapiens, UniProt Q5VT25)
[6] = target: each individual kinase of the panel (Homo sapiens, UniProt P78362)
[7] = target: each individual kinase of the panel (Homo sapiens, UniProt Q9BXA7)
[8] = target: each individual kinase of the panel (Homo sapiens, UniProt P54764)
each individual kinase of the panel (Homo sapiens, UniProt P54764), sequence (P54764 20-986 limits assumed): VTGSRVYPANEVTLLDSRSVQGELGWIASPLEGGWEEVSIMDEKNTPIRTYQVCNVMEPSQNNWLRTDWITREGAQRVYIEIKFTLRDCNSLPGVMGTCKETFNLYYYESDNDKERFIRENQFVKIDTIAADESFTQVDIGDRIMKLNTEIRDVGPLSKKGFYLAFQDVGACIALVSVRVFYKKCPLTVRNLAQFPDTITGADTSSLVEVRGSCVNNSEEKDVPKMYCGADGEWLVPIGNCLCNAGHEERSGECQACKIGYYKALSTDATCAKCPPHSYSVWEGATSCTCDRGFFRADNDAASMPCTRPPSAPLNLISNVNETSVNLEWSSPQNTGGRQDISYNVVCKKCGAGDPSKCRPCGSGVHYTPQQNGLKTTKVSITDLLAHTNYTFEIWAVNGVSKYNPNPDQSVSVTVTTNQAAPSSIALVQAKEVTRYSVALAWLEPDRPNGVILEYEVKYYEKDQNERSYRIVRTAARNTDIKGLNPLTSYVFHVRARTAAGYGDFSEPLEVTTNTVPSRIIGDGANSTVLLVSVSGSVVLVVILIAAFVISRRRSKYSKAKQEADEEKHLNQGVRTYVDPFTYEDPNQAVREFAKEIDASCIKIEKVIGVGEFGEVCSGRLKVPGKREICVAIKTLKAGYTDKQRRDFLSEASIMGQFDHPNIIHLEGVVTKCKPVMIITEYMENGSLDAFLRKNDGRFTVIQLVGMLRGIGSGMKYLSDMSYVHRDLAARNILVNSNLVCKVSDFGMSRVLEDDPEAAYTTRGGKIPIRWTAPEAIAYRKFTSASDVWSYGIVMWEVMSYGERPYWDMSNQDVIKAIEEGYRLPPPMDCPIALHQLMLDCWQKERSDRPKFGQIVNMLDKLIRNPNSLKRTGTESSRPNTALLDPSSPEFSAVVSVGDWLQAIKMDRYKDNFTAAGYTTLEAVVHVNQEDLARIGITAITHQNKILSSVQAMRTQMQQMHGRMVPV

[9] = target: each individual kinase of the panel (Homo sapiens, UniProt P43250)
[10] = target: each individual kinase of the panel (Homo sapiens, UniProt P05771)
each individual kinase of the panel (Homo sapiens, UniProt P05771), sequence (P05771 2-671 limits assumed): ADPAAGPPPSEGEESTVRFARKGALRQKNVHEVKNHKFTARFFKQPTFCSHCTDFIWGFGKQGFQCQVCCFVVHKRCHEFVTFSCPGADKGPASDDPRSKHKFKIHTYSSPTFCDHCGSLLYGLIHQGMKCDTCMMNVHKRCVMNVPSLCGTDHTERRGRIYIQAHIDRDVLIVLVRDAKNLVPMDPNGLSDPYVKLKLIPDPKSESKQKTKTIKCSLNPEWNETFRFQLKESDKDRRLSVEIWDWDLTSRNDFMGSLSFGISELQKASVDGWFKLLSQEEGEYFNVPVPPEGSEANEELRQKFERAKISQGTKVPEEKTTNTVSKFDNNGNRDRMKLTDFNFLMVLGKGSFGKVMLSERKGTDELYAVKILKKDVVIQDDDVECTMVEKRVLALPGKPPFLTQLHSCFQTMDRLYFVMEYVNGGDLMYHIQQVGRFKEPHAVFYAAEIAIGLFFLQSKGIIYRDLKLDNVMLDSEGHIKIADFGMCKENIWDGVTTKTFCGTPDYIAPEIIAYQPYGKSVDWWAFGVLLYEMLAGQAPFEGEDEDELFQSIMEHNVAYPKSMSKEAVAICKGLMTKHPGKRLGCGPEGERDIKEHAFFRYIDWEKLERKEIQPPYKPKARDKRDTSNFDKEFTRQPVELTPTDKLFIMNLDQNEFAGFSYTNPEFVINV

[11] = target: each individual kinase of the panel (Homo sapiens, UniProt Q86Y07)
[12] = target: each individual kinase of the panel (Homo sapiens, UniProt Q9H2K8)
[13] = target: each individual kinase of the panel (Homo sapiens, UniProt Q8TF76)
[14] = target: each individual kinase of the panel (Homo sapiens, UniProt P45984)
[15] = target: each individual kinase of the panel (Homo sapiens, UniProt Q9P0L2)

SMILES: C#Cc1cccc(Nc2nc3cc(C(=O)O)ccc3c3cncnc23)c1 [drawing 1135]
- PRKCE percentage of activity [1]: 0%
- PAK4 percentage of activity [2]: −12%
- MSSK1 percentage of activity [3]: −3%
- GSK3A percentage of activity [4]: 51%
- MRCKA percentage of activity [5]: −10%
- SRPK2 percentage of activity [6]: 36%
- TSSK1 percentage of activity [7]: −18%
- EPHA4 percentage of activity [8]: −3%
- GRK6 percentage of activity [9]: −2%
- PRKCB1 percentage of activity [10]: 0%
- VRK2 percentage of activity [11]: −3%
- TAO3 percentage of activity [12]: 22%
- GSG2 percentage of activity [13]: 4%
- JNK2A2 percentage of activity [14]: −7%
- MARK1 percentage of activity [15]: 0%
